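Growth conditions: 96-well plates. Treatment: test compound, 48 hours, 5 concentrations. Analysis: linear interpolation between bracketing concentrations; unreached endpoints set to highest concentration. At the TGI there is no net growth.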
Experiments:
Experiment in all cases: NCI anticancer screen, dose series, 48 h
HT29 colon = tested on: HT29 colon
MALME-3M melanoma = tested on: MALME-3M melanoma
RPMI-8226 leukemia = tested on: RPMI-8226 leukemia
SN12C renal = tested on: SN12C renal
SNB-19 CNS = tested on: SNB-19 CNS
UACC-257 melanoma = tested on: UACC-257 melanoma
OVCAR-8 ovarian = tested on: OVCAR-8 ovarian
SK-MEL-28 melanoma = tested on: SK-MEL-28 melanoma
BT-549 breast = tested on: BT-549 breast
PC-3 prostate = tested on: PC-3 prostate

| Structure (SMILES) | TGI (HT29 colon) [µM] | TGI (MALME-3M melanoma) [µM] | TGI (RPMI-8226 leukemia) [µM] | TGI (SN12C renal) [µM] | TGI (SNB-19 CNS) [µM] | TGI (UACC-257 melanoma) [µM] | TGI (OVCAR-8 ovarian) [µM] | TGI (SK-MEL-28 melanoma) [µM] | TGI (BT-549 breast) [µM] | TGI (PC-3 prostate) [µM] |
| --- | --- | --- | --- | --- | --- | --- | --- | --- | --- | --- |
| CC[n+]1c(/C=C/c2ccc(N(CCCl)CCCl)cc2)ccc2cc(I)ccc21 | 8.19 | 2.93 | 1.72 | 2.71 | 2.35 | 2.61 |  |  |  |  |
| OC12c3ccccc3C1CCCCCC21OCCCO1 (configuration not stated) | > 100 | > 100 | > 100 | > 100 | > 100 | > 100 | > 100 | > 100 |  |  |
| COc1ccc2oc(C(=O)N3CC(CCl)c4ccc(N)cc43)cc2c1 (configuration not stated) | 1.44 |  |  | 8.5 | 19.5 | 6.57 | 1.51 | 2.55 | 1.85 | > 21.3 |
| O=c1[nH]c(=O)n([C@@H]2O[C@H](CO)[C@@H](O)[C@@H]2F)cc1I | > 100 | > 100 |  | > 100 | > 100 | > 100 | > 100 | > 100 | > 100 |  |
| CCOC(=O)/C=C(/C(=O)OCC)n1ccc(=O)n(Cc2cnnn2CCCCOC(C)=O)c1=O | > 100 |  | > 100 | > 100 | > 100 | > 100 | > 100 | > 100 | > 100 | > 100 |
| C=CCn1c(-c2ccc(Cl)cc2)csc1=Nc1ccccc1OC |  | > 100 | > 100 | > 100 | > 100 | 29.7 | > 100 | > 100 | > 100 | > 100 |
| CNC(=S)/C(C#N)=C(\N)N1CCCC1 | > 100 | > 100 | > 100 | > 100 | > 100 |  | > 100 | > 100 |  | > 100 |
| CN1NC(c2ccccc2)=C(C#N)C(=O)CC1c1ccc(Br)cc1 (configuration not stated) | 75.6 | > 100 | > 100 | > 100 | > 100 | > 100 |  | > 100 |  |  |
| COc1ccc(/C(Cl)=C(\C=O)c2ccc(Cl)cc2)cc1OC | 20.8 | > 100 | 62.9 | 16.6 | > 100 | 37.4 | 28.6 |  |  |  |
| COc1cc2c(c(OC)c1OC)-c1ccc(SC)c(=O)cc1C(CC(=O)Oc1cccc(F)c1)C2 (configuration not stated) | 0.557 | > 100 | 6.19 | 16.6 | > 100 | > 100 |  | > 100 |  |  |
| Cc1cc(N(CCC#N)CCC#N)ccc1/C(N=Nc1ccc([N+](=O)[O-])cc1)=N\NC(=O)c1ccccc1 | 71.4 | > 100 | > 100 | > 100 | > 100 | > 100 | > 100 |  | > 100 | > 100 |
| Cc1ccc(C2C(Cl)C(=O)N2NC(=O)c2ccc(N)cc2)cc1 (configuration not stated) | 39.9 | 32.1 | 78.9 | 52.2 | 33.5 | 66.1 | 38.8 | 26 |  |  |
| CC(=O)n1nc(-c2ccc3ccccc3c2)nc1C | > 100 | > 100 |  | > 100 |  | > 100 | > 100 |  | > 100 | > 100 |
| COc1ccc2c3c1OC1C(OC)(OC)CC4(C=C2)CN(C)CCC314 (configuration not stated) | > 100 | > 100 | > 100 | > 100 | > 100 | > 100 | > 100 | > 100 | > 100 |  |
| CCN(CC)CCN1C(=O)C(=O)N(c2cccc3ccccc23)C1=O | > 10 | > 10 | > 10 | > 10 | > 10 |  | > 10 | > 10 |  | > 10 |
| CCOC(=O)C1(C(=O)OCC)C=C(c2ccccc2)N(C2OC(COC(C)=O)C(OC(C)=O)C(OC(C)=O)C2OC(C)=O)C1=S (configuration not stated) | > 100 | > 100 | 44.3 | > 100 | > 100 | > 100 | > 100 | > 100 | > 100 |  |
| O=C1NC(=Nc2ccccc2)C(=Nc2ccccc2)N1c1ccccc1 | 29.6 | 31.6 | 76.8 | 30.5 | 31.4 | 29.8 | 29.4 | 28.4 |  | 27.6 |
| COc1ccc(CCN2C(=O)CC34C=CC(CC3C2=O)O4)cc1OC (configuration not stated) | > 100 |  | > 100 | > 100 | > 100 | > 100 | > 100 | > 100 | > 100 | > 100 |
| OC12CCC3(O)c4ccccc4C3C1c1ccccc12 (configuration not stated) | > 100 | > 100 | > 100 | > 100 | > 100 | > 100 | > 100 | > 100 |  |  |
| CCOC(=O)c1nc2cc(C(F)(F)F)ccc2nc1Oc1ccc(F)cc1 |  | > 100 | > 100 | > 100 | > 100 | > 100 | > 100 | > 100 | > 100 | > 100 |
| NS(=O)(=O)c1nnc(NS(=O)(=O)c2ccc([N+](=O)[O-])cc2)s1 | > 100 | > 100 | > 100 |  |  |  | > 100 | > 100 | > 100 | > 100 |
| CCn1c(CSc2nc(-c3ccccc3)c(-c3ccccc3)[nH]2)n[nH]c1=S | > 100 | > 100 | > 100 | > 100 | > 100 | > 100 | > 100 | > 100 |  |  |
| COc1cc(OC)c(OC)cc1/C=C/c1cc[n+](C)c2ccccc12 | > 100 | > 100 | > 100 |  | > 100 | 50.9 | > 100 | > 100 |  | 75.1 |
| CCCCCCCCCC(=O)NC(Cc1ccc(O)cc1)C(=O)NCCCNCCCCNCCCNC(=O)[C@@H](N)CCCN=C(N)N (some centres not stated) | > 100 | 39.7 | > 100 | > 100 | > 100 | > 100 | > 100 | 43.8 |  |  |
| NCCNC(=O)CN(CC(=O)O)C1CCCCC1N(CC(=O)O)CC(=O)O (configuration not stated) | > 100 | > 100 |  | > 100 | > 100 | > 100 | > 100 | > 100 | > 100 | > 100 |

From PubChem BioAssay (NCI)
